system: Lysozyme; test: Inhibition of Maillard reaction: suppression of lysozyme dimer formation (lysozyme + fructose, SDS-PAGE); type: biochemical; conditions: inhibition ratio of test compound to aminoguanidine (positive control); lysozyme 10 mg/ml, fructose 100 mM, 0.2M sodium phosphate pH 7.4, 37° C., 3 days; dimer amount by SDS-PAGE
Procedure: Lysozyme and fructose were dissolved in a buffer solution of 0.2M sodium phosphate (pH 7.4) to respectively give concentrations of 10 mg/ml and 100 mM. After incubating at 37° C. for 3 days, a definite amount of the mixture was taken out and electrophoresed with the use of SDS-PAGE. After the completion of the electrophoresis, the gel was stained with 0.2% Coomassie Brilliant Blue R-250 and the amount of the dimer thus formed was determined.
Each of the test compounds was added before the initiation of the incubation and the effect of suppressing the formation of the dimer was examined at various concentrations, whereby the IC50 value was obtained. As a positive control, aminoguanidine, which is a known glycation inhibitor, was employed and the inhibition ratio of the test compound to aminoguanidine (IC50 of aminoguanidine/IC50 of test compound) was calculated.

Molecule | IC50 of aminoguanidine/IC50 of test compound
CC(C)=NN=C1NC(=O)C(Cc2ccc(OCc3ccc(Cl)cc3)cc2)N1 (stereo not shown) [Test compound 6, 5-[4-(4-Chlorobenzyloxy)benzyl]-2-isopropylidenehydrazonoimidazolidin-4-one] | 8.3
CSc1ccc(CC2SC(=NN=C(C)C)NC2=O)cc1 (stereo not shown) [Test compound 11, 2-isopropylidenehydrazono-5-(4-methylthiobenzyl)thiazolidin-4-one] | 1.2
5-[N-(1-carboxy-3-methylbutyl)carbamoylmethyl]-2-isopropylidenehydrazonothiazolidin-4-one [Test compound 103] | 1.7
5-[N-(1-ethoxycarbonyl-3-methylbutyl)carbamoylmethyl]-2-isopropylidenehydrazonothiazolidin-4-one [Test compound 97] | 2.3
O=C1CN2C(=NN1)NC(=O)C2COCc1ccccc1 (stereo not shown) [Test compound 29, 9-Benzyloxymethyl-1,4,5,7-tetraazabicyclo[4.3.0]nonan-5-ene-3,8-dione] | 0.6
2-Isopropylidenehydrazono-5-[N-(3,4,5-trichlorophenyl)carbamoylmethyl]thiazolidin-4-one [Test compound 57] | 0.8
CC(C)=NN=C1NC(=O)C(CC(=O)NCc2ccccc2)S1 (stereo not shown) [Test compound 30, 5-(N-Benzylcarbamoylmethyl)-2-isopropylidenehydrazonothiazolidin-4-one] | 3.5
2-Isopropylidenehydrazono-5-{N-[1-methoxycarbonyl-2-(3-indolyl)ethyl]carbamoylmethyl}thiazolidin-4-one [Test compound 102] | 4.3
5-(N-carboxymethylcarbamoylmethyl)-2-isopropylidenehydrazonothiazolidin-4- one [Test compound 47] | 1.7
2-Isopropylidenehydrazono-5-[N-(2-methyl-5-methoxycarbonylphenyl)carbamoylmethyl]thiazolidin-4-one [Test compound 84] | 3.5

Second part, the molecule after the results:

IC50 of aminoguanidine/IC50 of test compound | Molecule
3.1 | CC(C)=NN=C1NC(=O)C(CCC(=O)Nc2ccccc2)N1 (stereo not shown) [Test compound 80, 2-Isopropylidenehydrazono-5-[2-(N-phenylcarbamoyl)ethyl]imidazolidin-4-one]
4.6 | CC(C)=NN=C1NC(=O)C(CC(=O)NCc2cccnc2)S1 (stereo not shown) [Test compound 66, 2-Isopropylidenehydrazono-5-[N-(3-pyridylmethyl)carbamoylmethyl]thiazolidin-4-one]
78.9 | CC(C)=NN=C1NC(=O)C(Cc2ccc(O)c(O)c2)N1 (stereo not shown) [Test compound 42, 5-(3,4-Dihydroxybenzyl)-2-isopropylidenehydrazonoimidazolidin-4-one]
2.6 | CC(C)=NN=C1NC(=O)C(Cc2c[nH]c3ccccc23)N1 (stereo not shown) [Test compound 40, 5-(3-Indolylmethyl)-2-isopropylidenehydrazonoimidazolidin-4-one]
0.91 | CCOC(=O)CN1C(=O)C(CC(=O)Nc2ccccc2)SC1=NN=C(C)C (stereo not shown) [Test compound 61, 3-Ethoxycarbonylmethyl-5-(N-phenylcarbamoylmethyl)-2-isopropylidenehydrazonothiazolin-4-one]
26 | COC(=O)c1ccccc1NC(=O)CC1SC(=NN=C(C)C)NC1=O (stereo not shown) [Test compound 93, 2-Isopropylidenehydrazono-5-[N-(2-methoxycarbonylphenyl)carbamoylmethyl]thiazolidin-4-one]
36 | CC(C)=NN=C1NC(=O)C(CC(=O)NCc2cccs2)S1 (stereo not shown) [Test compound 70, 2-isopropylidenehydrazono-5-[N-(2-thienylmethyl)carbamoylmethyl]thiazolidin-4-one]
0.8 | NN=C1NC(=O)C(CC(=O)Nc2ccccc2)S1 (stereo not shown) [Test compound 81, 2-Hydrazono-5-(N-phenylcarbamoylmethyl)thiazolidin-4-one]
6.4 | CC(C)=NN=C1NC(=O)C(CC(=O)Nc2c(C)cccc2C)S1 (stereo not shown) [Test compound 112, 5-[N-(2,6-dimethylphenyl)carbamoylmethyl]-2-isopropylidenehydrazonothiazolidin-4-one]

Reference: patent US5677322A, “Maillard reaction inhibitor” (Otsuka Pharmaceutical Co., Ltd., priority 1993, dated 1997)
